Columns and labels:
MettL5-Trm112 = MettL5-Trm112 (Homo sapiens, UniProt Q9NRN9); format: biochemical
CcrM = CcrM (Caulobacter vibrioides, UniProt P0CAW2); format: biochemical, Caulobacter crescentus
DNMT1 = DNMT1 (Homo sapiens, UniProt P26358); assay: Selectivity assay, DNMT1; format: biochemical; conditions: [I] = 10 μM, [SAM] = 5.5 μM, 37 °C
MettL3-MettL14 = MettL3-MettL14 (Homo sapiens, UniProt Q86U44); assay: Selectivity assay, MettL3-MettL14; format: biochemical; conditions: [I] = 10 μM, [SAM] = 20 μM, 5 mM NaCl, or CamA conditions
MettL3-MettL14, sequence (Q86U44 whole entry): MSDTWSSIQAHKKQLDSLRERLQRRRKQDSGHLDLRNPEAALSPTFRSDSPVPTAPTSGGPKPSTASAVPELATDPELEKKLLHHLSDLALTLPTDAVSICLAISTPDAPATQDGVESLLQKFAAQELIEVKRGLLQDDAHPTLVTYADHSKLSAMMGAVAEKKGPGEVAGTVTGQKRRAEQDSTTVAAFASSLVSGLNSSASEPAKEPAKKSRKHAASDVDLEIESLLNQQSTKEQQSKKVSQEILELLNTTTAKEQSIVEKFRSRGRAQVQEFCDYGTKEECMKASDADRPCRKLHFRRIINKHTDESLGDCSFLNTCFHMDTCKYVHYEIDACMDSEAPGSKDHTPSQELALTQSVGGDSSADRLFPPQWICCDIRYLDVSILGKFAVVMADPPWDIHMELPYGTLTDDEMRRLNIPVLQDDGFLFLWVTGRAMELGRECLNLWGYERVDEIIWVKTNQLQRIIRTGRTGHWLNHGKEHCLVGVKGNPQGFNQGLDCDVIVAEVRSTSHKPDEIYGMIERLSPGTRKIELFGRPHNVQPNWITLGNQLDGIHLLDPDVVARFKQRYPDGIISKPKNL
MettL3-MettL14, sequence (Q9HCE5 whole entry partner): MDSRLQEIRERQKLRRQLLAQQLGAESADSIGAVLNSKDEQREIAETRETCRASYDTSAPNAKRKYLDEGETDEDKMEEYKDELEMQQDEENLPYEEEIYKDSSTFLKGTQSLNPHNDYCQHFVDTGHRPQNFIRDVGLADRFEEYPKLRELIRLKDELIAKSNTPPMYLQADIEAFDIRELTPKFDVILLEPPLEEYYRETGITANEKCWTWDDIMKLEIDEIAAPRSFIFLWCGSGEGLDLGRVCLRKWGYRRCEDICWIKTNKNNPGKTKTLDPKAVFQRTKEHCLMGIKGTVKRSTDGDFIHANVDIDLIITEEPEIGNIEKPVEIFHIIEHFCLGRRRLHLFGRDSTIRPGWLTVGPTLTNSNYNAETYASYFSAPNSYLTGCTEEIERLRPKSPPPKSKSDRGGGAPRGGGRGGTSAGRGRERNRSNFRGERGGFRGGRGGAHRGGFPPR

PRMT1 = PRMT1 (Homo sapiens, UniProt Q99873); assay: Selectivity assay, PRMT1; format: biochemical; conditions: compound 10 μM, 3H-SAM 1 μM
PRMT1, sequence (Q99873 whole entry): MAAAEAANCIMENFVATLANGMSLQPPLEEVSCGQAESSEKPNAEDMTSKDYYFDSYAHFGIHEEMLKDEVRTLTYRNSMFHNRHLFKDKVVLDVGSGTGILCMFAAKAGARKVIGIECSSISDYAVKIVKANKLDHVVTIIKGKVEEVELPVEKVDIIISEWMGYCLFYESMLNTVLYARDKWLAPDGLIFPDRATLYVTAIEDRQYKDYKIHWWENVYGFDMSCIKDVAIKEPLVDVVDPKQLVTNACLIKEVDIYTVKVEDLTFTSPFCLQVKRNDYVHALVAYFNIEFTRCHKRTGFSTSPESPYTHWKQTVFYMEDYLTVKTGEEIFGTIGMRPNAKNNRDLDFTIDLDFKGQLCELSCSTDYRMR

Dam = target: T1, Dam (Escherichia coli, UniProt P0AEE8); format: biochemical
T1 sequence (P0AEE8 1-278): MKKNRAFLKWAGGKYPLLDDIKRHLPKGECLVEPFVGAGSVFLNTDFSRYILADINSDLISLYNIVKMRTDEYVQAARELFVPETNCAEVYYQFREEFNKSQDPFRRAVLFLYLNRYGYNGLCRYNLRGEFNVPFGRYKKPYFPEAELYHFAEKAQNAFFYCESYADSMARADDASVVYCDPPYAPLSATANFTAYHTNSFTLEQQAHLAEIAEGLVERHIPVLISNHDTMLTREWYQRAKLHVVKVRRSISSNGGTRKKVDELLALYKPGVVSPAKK

[1] = target: T2, A1 adenosine receptor (A1AR) (Homo sapiens, UniProt P30542); assay: A1AR agonist radioligand binding assay; conditions: compound 10 μM, [3H]CCPA 1 nM, transfected CHO cell membranes
T2 sequence (P30542 1-326): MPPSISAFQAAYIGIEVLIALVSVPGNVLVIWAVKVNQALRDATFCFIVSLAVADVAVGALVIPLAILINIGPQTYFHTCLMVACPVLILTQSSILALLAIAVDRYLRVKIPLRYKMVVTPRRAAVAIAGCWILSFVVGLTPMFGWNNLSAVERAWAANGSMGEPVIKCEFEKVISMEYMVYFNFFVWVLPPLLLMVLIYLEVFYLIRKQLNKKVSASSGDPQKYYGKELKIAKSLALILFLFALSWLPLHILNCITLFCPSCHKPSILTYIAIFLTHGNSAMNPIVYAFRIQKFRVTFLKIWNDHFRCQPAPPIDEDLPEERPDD

EZH2 complex = EZH2 complex (Homo sapiens, UniProt Q15910); assay: Selectivity assay, EZH2 complex; format: biochemical; conditions: compound 10 μM, 3H-SAM 1 μM
MettL16 = target: T3, MettL16 (Homo sapiens, UniProt Q86W50); assay: Selectivity assay, MettL16; format: biochemical; conditions: [I] = 10 μM, [SAM] = 160 μM or 30 μM
T3 sequence (Q86W50 1-562): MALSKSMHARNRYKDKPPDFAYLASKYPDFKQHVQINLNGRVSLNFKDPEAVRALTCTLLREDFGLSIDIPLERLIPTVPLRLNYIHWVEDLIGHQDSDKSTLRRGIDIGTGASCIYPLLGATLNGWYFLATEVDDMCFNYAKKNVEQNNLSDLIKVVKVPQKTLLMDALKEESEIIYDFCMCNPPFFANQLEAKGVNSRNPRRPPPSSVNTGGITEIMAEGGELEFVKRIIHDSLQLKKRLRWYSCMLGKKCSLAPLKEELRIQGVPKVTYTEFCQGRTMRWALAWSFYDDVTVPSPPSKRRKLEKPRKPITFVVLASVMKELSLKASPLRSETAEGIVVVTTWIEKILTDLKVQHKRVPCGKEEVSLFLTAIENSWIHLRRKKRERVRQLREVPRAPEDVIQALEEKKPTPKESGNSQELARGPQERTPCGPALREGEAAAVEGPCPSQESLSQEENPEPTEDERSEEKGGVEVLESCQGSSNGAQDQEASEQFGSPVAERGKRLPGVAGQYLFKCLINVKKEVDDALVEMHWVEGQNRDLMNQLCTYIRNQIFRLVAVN

G9a = target: T4, G9a (Homo sapiens, UniProt Q96KQ7); assay: Selectivity assay, G9a; format: biochemical; conditions: compound 10 μM, 3H-SAM 1 μM
T4 sequence (Q96KQ7 1-1210): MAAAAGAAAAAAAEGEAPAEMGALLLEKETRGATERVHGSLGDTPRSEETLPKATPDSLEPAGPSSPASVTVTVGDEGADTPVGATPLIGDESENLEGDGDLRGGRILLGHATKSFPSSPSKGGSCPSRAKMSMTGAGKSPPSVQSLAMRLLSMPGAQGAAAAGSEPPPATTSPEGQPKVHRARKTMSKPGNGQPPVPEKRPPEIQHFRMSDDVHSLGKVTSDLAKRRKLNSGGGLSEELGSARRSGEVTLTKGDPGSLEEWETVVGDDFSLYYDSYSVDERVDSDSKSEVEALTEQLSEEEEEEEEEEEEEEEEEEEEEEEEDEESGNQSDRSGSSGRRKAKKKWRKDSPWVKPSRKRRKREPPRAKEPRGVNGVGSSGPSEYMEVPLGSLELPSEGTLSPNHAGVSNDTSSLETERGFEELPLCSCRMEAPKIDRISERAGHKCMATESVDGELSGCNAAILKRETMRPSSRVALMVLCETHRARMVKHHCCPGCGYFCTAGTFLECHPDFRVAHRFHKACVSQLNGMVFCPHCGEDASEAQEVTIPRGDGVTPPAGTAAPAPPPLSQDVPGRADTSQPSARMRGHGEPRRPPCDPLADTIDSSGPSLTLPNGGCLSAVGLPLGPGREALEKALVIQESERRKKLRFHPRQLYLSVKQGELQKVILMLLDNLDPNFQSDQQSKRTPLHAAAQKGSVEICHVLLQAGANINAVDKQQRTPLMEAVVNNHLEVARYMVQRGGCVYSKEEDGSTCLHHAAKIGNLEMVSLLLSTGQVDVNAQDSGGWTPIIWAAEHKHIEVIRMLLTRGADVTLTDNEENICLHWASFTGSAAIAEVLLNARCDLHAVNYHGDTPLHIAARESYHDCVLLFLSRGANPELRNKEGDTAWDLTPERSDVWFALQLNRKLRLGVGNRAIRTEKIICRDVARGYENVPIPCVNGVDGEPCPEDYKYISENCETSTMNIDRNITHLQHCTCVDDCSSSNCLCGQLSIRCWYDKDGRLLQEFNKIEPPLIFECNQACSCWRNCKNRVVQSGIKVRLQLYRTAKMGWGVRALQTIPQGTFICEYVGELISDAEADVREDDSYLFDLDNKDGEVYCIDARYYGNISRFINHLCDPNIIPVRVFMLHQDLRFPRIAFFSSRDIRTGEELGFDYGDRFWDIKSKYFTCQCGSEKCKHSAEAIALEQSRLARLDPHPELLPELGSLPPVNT

CamA = target: T5, CamA (Clostridioides difficile, UniProt Q183J3); assay: Isothermal titration calorimetry; format: binding; conditions: from that of compound 37
T5 sequence (Q183J3 1-577): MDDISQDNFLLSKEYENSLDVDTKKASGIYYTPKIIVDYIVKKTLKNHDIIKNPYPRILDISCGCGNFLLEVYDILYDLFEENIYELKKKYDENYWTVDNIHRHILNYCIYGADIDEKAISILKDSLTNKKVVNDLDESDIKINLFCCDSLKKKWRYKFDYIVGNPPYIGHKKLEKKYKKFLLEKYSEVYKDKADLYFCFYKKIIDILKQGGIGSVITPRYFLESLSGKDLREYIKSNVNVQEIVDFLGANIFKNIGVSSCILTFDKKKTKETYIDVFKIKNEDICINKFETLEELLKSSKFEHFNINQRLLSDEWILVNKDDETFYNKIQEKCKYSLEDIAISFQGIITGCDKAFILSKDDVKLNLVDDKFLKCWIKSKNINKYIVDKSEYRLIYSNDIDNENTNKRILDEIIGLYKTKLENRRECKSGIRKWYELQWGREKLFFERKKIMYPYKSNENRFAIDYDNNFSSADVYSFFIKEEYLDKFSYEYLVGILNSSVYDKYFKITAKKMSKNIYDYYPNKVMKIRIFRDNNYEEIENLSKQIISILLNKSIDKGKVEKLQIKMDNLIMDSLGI

PCIF1 = PCIF1 (Homo sapiens, UniProt Q9H4Z3); format: biochemical
PCIF1, sequence (Q9H4Z3 whole entry): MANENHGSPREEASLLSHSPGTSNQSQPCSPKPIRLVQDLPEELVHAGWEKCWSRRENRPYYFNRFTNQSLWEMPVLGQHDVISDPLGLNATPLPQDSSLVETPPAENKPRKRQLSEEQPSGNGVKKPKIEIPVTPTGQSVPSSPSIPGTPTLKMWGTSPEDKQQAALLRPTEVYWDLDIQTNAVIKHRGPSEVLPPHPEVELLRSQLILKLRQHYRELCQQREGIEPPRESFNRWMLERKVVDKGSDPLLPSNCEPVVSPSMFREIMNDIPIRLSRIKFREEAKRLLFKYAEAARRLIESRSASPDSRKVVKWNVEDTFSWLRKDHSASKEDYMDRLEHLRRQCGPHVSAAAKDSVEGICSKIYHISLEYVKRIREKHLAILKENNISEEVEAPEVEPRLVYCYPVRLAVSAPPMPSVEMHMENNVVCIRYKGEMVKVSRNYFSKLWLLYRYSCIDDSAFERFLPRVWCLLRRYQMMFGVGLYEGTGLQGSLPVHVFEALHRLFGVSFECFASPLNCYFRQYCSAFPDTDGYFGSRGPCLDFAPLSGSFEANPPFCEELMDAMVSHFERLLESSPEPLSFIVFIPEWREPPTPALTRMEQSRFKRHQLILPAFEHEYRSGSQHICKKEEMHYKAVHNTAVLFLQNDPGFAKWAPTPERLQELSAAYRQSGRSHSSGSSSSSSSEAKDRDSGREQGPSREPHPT

DOT1L = DOT1L (Homo sapiens, UniProt Q8TEK3); assay: Selectivity assay, DOT1L; format: biochemical; conditions: compound 10 μM, 3H-SAM 1 μM
DOT1L, sequence (Q8TEK3 whole entry): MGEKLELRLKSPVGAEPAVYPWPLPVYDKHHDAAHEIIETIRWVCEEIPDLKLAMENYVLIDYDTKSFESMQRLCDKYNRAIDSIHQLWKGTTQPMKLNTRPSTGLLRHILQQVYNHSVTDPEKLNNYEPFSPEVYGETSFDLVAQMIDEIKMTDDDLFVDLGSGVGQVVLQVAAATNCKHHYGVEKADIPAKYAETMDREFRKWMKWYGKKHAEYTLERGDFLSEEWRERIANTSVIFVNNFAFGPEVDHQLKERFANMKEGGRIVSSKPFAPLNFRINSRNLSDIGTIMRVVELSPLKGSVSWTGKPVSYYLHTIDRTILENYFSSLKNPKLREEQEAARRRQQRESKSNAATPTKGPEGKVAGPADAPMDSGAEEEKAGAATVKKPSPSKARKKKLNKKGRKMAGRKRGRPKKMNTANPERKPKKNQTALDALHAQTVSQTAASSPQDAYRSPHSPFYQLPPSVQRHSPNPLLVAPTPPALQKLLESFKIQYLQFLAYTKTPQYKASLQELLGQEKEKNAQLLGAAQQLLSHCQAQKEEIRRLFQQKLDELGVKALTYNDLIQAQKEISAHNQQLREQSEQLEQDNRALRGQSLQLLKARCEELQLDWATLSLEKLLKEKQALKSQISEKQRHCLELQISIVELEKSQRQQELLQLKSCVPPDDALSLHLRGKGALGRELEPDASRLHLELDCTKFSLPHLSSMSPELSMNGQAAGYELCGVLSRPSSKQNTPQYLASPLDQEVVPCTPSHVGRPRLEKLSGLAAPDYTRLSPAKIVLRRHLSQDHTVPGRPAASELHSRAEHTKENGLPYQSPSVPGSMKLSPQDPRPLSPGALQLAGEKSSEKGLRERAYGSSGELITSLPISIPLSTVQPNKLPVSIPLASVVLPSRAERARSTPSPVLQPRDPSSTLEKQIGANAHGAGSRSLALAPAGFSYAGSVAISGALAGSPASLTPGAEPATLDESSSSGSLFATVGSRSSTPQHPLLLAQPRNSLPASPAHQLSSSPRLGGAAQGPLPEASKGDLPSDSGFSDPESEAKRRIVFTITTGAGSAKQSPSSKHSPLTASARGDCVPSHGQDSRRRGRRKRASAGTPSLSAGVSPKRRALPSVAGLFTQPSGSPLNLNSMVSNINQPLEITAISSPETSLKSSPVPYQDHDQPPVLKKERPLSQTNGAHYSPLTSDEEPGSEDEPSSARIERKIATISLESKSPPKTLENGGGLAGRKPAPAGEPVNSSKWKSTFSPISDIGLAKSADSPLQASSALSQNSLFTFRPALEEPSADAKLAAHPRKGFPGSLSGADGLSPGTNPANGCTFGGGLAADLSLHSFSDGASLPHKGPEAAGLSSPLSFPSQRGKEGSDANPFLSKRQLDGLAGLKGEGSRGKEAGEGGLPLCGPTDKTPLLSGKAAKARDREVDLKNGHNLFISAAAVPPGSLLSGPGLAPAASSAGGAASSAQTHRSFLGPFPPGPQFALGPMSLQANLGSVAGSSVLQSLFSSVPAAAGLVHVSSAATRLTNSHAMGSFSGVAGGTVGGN

Dnmt3a-Dnmt3L = Dnmt3a-Dnmt3L (Mus musculus, UniProt O88508); format: biochemical

DNMT1, sequence (P26358 351-1600): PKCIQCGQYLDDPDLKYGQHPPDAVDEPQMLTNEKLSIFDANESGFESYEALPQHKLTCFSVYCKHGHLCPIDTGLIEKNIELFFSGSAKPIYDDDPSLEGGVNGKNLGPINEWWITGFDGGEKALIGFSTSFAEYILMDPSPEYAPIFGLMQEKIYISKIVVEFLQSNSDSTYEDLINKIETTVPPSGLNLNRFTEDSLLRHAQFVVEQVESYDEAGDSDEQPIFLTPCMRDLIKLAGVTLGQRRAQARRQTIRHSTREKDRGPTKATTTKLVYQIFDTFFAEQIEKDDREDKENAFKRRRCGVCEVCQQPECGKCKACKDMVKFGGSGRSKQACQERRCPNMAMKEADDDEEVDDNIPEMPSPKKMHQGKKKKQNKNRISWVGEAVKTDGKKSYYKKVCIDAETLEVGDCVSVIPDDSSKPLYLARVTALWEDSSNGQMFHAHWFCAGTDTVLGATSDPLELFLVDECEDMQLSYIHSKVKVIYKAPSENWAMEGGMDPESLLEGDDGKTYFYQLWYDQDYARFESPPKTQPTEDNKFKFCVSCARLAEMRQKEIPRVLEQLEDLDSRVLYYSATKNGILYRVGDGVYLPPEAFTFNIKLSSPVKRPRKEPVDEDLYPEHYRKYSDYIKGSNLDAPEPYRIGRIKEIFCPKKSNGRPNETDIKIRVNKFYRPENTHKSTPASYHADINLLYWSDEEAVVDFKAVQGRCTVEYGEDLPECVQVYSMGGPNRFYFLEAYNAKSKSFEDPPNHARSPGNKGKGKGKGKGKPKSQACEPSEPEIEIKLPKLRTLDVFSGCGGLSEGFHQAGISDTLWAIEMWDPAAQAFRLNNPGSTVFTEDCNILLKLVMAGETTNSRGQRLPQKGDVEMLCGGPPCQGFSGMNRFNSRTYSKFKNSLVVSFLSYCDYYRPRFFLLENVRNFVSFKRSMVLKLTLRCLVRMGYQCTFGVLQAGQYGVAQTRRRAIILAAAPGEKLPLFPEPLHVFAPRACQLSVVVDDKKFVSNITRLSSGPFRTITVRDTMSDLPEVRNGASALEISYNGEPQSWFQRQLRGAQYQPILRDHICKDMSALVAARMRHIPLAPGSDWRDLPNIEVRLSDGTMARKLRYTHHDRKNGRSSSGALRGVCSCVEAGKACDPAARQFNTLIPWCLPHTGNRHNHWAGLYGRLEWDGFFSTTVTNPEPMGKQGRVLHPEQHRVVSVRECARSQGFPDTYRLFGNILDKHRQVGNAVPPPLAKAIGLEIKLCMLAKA

| SMILES | inhibition of MettL5-Trm112 (MettL5-Trm112) | inhibition of CcrM (CcrM) | inhibition of DNMT1 (DNMT1) | inhibition of MettL3-MettL14 (MettL3-MettL14) | inhibition of PRMT1 (PRMT1) | inhibition of Dam (Dam) | inhibition of control radioligand specific binding, A1AR [1] | inhibition of EZH2 complex (EZH2 complex) | inhibition of MettL16 (MettL16) | inhibition of G9a (G9a) | KD improved, fold (CamA) [×] | inhibition of PCIF1 (PCIF1) | inhibition of DOT1L (DOT1L) | inhibition of Dnmt3a-Dnmt3L (Dnmt3a-Dnmt3L) |
| --- | --- | --- | --- | --- | --- | --- | --- | --- | --- | --- | --- | --- | --- | --- |
| CC(C)(C)OC(=O)N1CCC(CCNc2ncnc3c2ncn3[C@@H]2O[C@H](CO)[C@@H](O)[C@H]2O)CC1 [Compound 38, tert-Butyl-4-(2-((9-((2R,3R,4S,5R)-3,4-dihydroxy-5-(hydroxymethyl)tetrahydrofuran-2-yl)-9H-purin-6-yl)amino)ethyl)piperidine-1-carboxylate] | none of them showed any significant inhibition | none of them showed any significant inhibition | none of them showed any significant inhibition | none of them showed any significant inhibition | none of them showed any significant inhibition | none of them showed any significant inhibition | minimal inhibition of specific binding | none of them showed any significant inhibition | none of them showed any significant inhibition | none of them showed any significant inhibition | ~8 | none of them showed any significant inhibition | none of them showed any significant inhibition | none of them showed any significant inhibition |
| OC[C@H]1O[C@@H](n2cnc3c(NC4CCCC4)ncnc32)[C@H](O)[C@@H]1O [N^6-cyclopentyladenosine, reference compound] |  |  |  |  |  |  | completely abolished radioligand binding |  |  |  |  |  |  |  |
| Nc1ncnc2c1ncn2[C@@H]1O[C@H](CSCC[C@H](N)C(=O)O)[C@@H](O)[C@H]1O [SAH, S-adenosyl-L-homocysteine, reference compound] |  |  |  |  | exhibited measurable inhibition |  |  |  |  | exhibited measurable inhibition |  |  | exhibited measurable inhibition |  |

From paper PMC9841527 (Journal of Medicinal Chemistry, 2022)
